Columns and labels:
Malme-3M = experiment: Growth inhibition of human MALME-3M cells after 48 hrs by sulforhodamine B assay; type: functional
UACC-257 = experiment: Growth inhibition of human UACC257 cells after 48 hrs by sulforhodamine B assay; type: functional; details: UACC-257, 48 h
HT-29 = experiment: Growth inhibition of human HT-29 cells after 48 hrs by sulforhodamine B assay; type: functional; details: HT-29, 48 h
SW-620 = experiment: Growth inhibition of human SW620 cells after 48 hrs by sulforhodamine B assay; type: functional; details: SW-620, 48 h
HCT-116 = experiment: Growth inhibition of human HCT116 cells after 48 hrs by sulforhodamine B assay; type: functional; details: HCT-116, 48 h
MDA-MB-468 = experiment: Growth inhibition of human MDA-MB-468 cells after 48 hrs by sulforhodamine B assay; type: functional; details: MDA-MB-468, 48 h
SK-OV-3 = experiment: Growth inhibition of human SKOV3 cells after 48 hrs by sulforhodamine B assay; type: functional; details: SK-OV-3, 48 h
COLO 205 = experiment: Growth inhibition of human COLO205 cells after 48 hrs by sulforhodamine B assay; type: functional; details: COLO 205, 48 h
CAKI-1 = experiment: Growth inhibition of human CAKI-1 cells after 48 hrs by sulforhodamine B assay; type: functional; details: CAKI-1, 48 h
[1] = Growth inhibition of human Hs 578T cells after 48 hrs by sulforhodamine B assay; type: functional
A498 = experiment: Growth inhibition of human A498 cells after 48 hrs by sulforhodamine B assay; type: functional; details: A498, 48 h
HL-60(TB) = experiment: Growth inhibition of human HL-60(TB) cells after 48 hrs by sulforhodamine B assay; type: functional; details: HL-60, 48 h
TK-10 = experiment: Growth inhibition of human TK10 cells after 48 hrs by sulforhodamine B assay; type: functional; details: TK-10, 48 h
OVCAR-3 = experiment: Growth inhibition of human OVCAR3 cells after 48 hrs by sulforhodamine B assay; type: functional; details: OVCAR-3, 48 h
IGROV-1 = experiment: Growth inhibition of human IGROV1 cells after 48 hrs by sulforhodamine B assay; type: functional; details: IGROV-1, 48 h
OVCAR-5 = experiment: Growth inhibition of human OVCAR5 cells after 48 hrs by sulforhodamine B assay; type: functional; details: OVCAR-5, 48 h
SF-268 = experiment: Growth inhibition of human SF268 cells after 48 hrs by sulforhodamine B assay; type: functional; details: SF-268, 48 h
DU-145 = experiment: Growth inhibition of human DU145 cells after 48 hrs by sulforhodamine B assay; type: functional; details: DU-145, 48 h
SN12C = experiment: Growth inhibition of human SN12C cells after 48 hrs by sulforhodamine B assay; type: functional
MCF7 = experiment: Growth inhibition of human MCF7 cells after 48 hrs by sulforhodamine B assay; type: functional; details: MCF7, 48 h
HOP-62 = experiment: Growth inhibition of human HOP62 cells after 48 hrs by sulforhodamine B assay; type: functional; details: HOP-62, 48 h
NCI-H522 = experiment: Growth inhibition of human NCI-H522 cells after 48 hrs by sulforhodamine B assay; type: functional; details: NCI-H522, 48 h
MDA-MB-231 = experiment: Growth inhibition of human MDA-MB-231 cells after 48 hrs by sulforhodamine B assay; type: functional; details: MDA-MB-231, 48 h
PC-3 = experiment: Growth inhibition of human PC3 cells after 48 hrs by sulforhodamine B assay; type: functional; details: PC-3, 48 h
SF-539 = experiment: Growth inhibition of human SF539 cells after 48 hrs by sulforhodamine B assay; type: functional; details: SF-539, 48 h
SK-MEL-2 = experiment: Growth inhibition of human SK-MEL-2 cells after 48 hrs by sulforhodamine B assay; type: functional; details: SK-MEL-2, 48 h
Ovis aries = organism: Ovis aries; experiment: Inhibition of sheep brain tubulin polymerization at 100 uM using DAPI by fluorimetry
SK-MEL-28 = experiment: Growth inhibition of human SK-MEL-28 cells after 48 hrs by sulforhodamine B assay; type: functional; details: SK-MEL-28, 48 h
T47D = experiment: Growth inhibition of human T47D cells after 48 hrs by sulforhodamine B assay; type: functional
SF-295 = experiment: Growth inhibition of human SF295 cells after 48 hrs by sulforhodamine B assay; type: functional; details: SF-295, 48 h
KM12 = experiment: Growth inhibition of human KM12 cells after 48 hrs by sulforhodamine B assay; type: functional; details: KM12, 48 h
SNB-75 = experiment: Growth inhibition of human SNB75 cells after 48 hrs by sulforhodamine B assay; type: functional; details: SNB-75, 48 h
OVCAR-4 = experiment: Growth inhibition of human OVCAR4 cells after 48 hrs by sulforhodamine B assay; type: functional; details: OVCAR-4, 48 h
M14 = experiment: Growth inhibition of human M14 cells after 48 hrs by sulforhodamine B assay; type: functional; details: M14, 48 h
MOLT-4 = experiment: Growth inhibition of human MOLT4 cells after 48 hrs by sulforhodamine B assay; type: functional; details: MOLT-4, 48 h
MDA-MB-435 = experiment: Growth inhibition of human MDA-MB-435 cells after 48 hrs by sulforhodamine B assay; type: functional; details: MDA-MB-435, 48 h
SR = experiment: Growth inhibition of human SR cells after 48 hrs by sulforhodamine B assay; type: functional
RPMI-8226 = experiment: Growth inhibition of human RPMI8226 cells after 48 hrs by sulforhodamine B assay; type: functional; details: RPMI-8226, 48 h
SK-MEL-5 = experiment: Growth inhibition of human SK-MEL-5 cells after 48 hrs by sulforhodamine B assay; type: functional; details: SK-MEL-5, 48 h
NCI-H23 = experiment: Growth inhibition of human NCI-H23 cells after 48 hrs by sulforhodamine B assay; type: functional; details: NCI-H23, 48 h
OVCAR-8 = experiment: Growth inhibition of human OVCAR8 cells after 48 hrs by sulforhodamine B assay; type: functional; details: OVCAR-8, 48 h
786-0 = experiment: Growth inhibition of human 786-0 cells after 48 hrs by sulforhodamine B assay; type: functional; details: 786-0, 48 h
UO-31 = experiment: Growth inhibition of human UO31 cells after 48 hrs by sulforhodamine B assay; type: functional; details: UO-31, 48 h
UACC-62 = experiment: Growth inhibition of human UACC62 cells after 48 hrs by sulforhodamine B assay; type: functional; details: UACC-62, 48 h
BT-549 = experiment: Growth inhibition of human BT549 cells after 48 hrs by sulforhodamine B assay; type: functional; details: BT-549, 48 h
HCT-15 = experiment: Growth inhibition of human HCT15 cells after 48 hrs by sulforhodamine B assay; type: functional; details: HCT-15, 48 h
LOX IMVI = experiment: Growth inhibition of human LOXIMVI cells after 48 hrs by sulforhodamine B assay; type: functional
A549 = experiment: Growth inhibition of human A549/ATCC cells after 48 hrs by sulforhodamine B assay; type: functional; details: A549, 48 h
CCRF-CEM = experiment: Growth inhibition of human CCRF-CEM cells after 48 hrs by sulforhodamine B assay; type: functional
ACHN = experiment: Growth inhibition of human ACHN cells after 48 hrs by sulforhodamine B assay; type: functional
K562 = experiment: Growth inhibition of human K562 cells after 48 hrs by sulforhodamine B assay; type: functional; details: K562, 48 h
[2] = Growth inhibition of human NCI-ADR-RES cells after 48 hrs by sulforhodamine B assay; type: functional
RXF 393 = experiment: Growth inhibition of human RXF393 cells after 48 hrs by sulforhodamine B assay; type: functional; details: RXF 393, 48 h
[3] = Growth inhibition of human HCC2998 cells after 48 hrs by sulforhodamine B assay; type: functional; details: HCC 2998, 48 h
NCI-H460 = experiment: Growth inhibition of human NCI-H460 cells after 48 hrs by sulforhodamine B assay; type: functional; details: NCI-H460, 48 h

COc1c(F)ccc(C(=O)N2c3ccccc3Sc3ccccc32)c1F
GI50 (Malme-3M): 3090 nM
GI50 (UACC-257): 6510 nM
GI50 (HT-29): 3240 nM
GI50 (SW-620): 3680 nM
GI50 (HCT-116): 3600 nM
GI50 (MDA-MB-468): 1700 nM
GI50 (SK-OV-3): 12200 nM
GI50 (COLO 205): 6470 nM
GI50 (CAKI-1): 4010 nM
GI50 [1]: 6920 nM
GI50 (A498): 2220 nM
GI50 (HL-60(TB)): 3990 nM
GI50 (TK-10): 10200 nM
GI50 (OVCAR-3): 4200 nM
GI50 (IGROV-1): 4870 nM
GI50 (OVCAR-5): 24100 nM
GI50 (SF-268): 6500 nM
GI50 (DU-145): 14000 nM
GI50 (SN12C): 6070 nM
GI50 (MCF7): 5500 nM
GI50 (HOP-62): 8370 nM
GI50 (NCI-H522): 2700 nM
GI50 (MDA-MB-231): 3660 nM
GI50 (PC-3): 2840 nM
GI50 (SF-539): 5030 nM
GI50 (SK-MEL-2): 3450 nM
inhibition (Ovis aries): 10%
GI50 (SK-MEL-28): 4930 nM
GI50 (T47D): 5240 nM
GI50 (SF-295): 6100 nM
GI50 (KM12): 4010 nM
GI50 (SNB-75): 2320 nM
GI50 (OVCAR-4): 10300 nM
GI50 (M14): 3860 nM
GI50 (MOLT-4): 4290 nM
GI50 (MDA-MB-435): 1800 nM
GI50 (SR): 2330 nM
GI50 (RPMI-8226): 3220 nM
GI50 (SK-MEL-5): 2950 nM
GI50 (NCI-H23): 4890 nM
GI50 (OVCAR-8): 10000 nM
GI50 (786-0): 7570 nM
GI50 (UO-31): 6520 nM
GI50 (UACC-62): 2680 nM
GI50 (BT-549): 5210 nM
GI50 (HCT-15): 3070 nM
GI50 (LOX IMVI): 4720 nM
GI50 (A549): 4070 nM
GI50 (CCRF-CEM): 5000 nM
GI50 (ACHN): 7960 nM
GI50 (K562): 3240 nM
GI50 [2]: 2970 nM
GI50 (RXF 393): 2290 nM
GI50 [3]: 11700 nM
GI50 (NCI-H460): 3670 nM

CN(C)Cc1cn(C(=O)N2c3ccccc3Sc3ccccc32)c2ccccc12
GI50 (Malme-3M): 1990 nM
GI50 (UACC-257): 1600 nM
GI50 (HT-29): 1790 nM
GI50 (SW-620): 1840 nM
GI50 (HCT-116): 1740 nM
GI50 (MDA-MB-468): 1160 nM
GI50 (SK-OV-3): 2020 nM
GI50 (COLO 205): 1850 nM
GI50 (CAKI-1): 1530 nM
GI50 [1]: 2080 nM
GI50 (A498): 1240 nM
GI50 (HL-60(TB)): 2220 nM
GI50 (TK-10): 1730 nM
GI50 (OVCAR-3): 1950 nM
GI50 (IGROV-1): 1730 nM
GI50 (OVCAR-5): 1500 nM
GI50 (SF-268): 2920 nM
GI50 (DU-145): 1980 nM
GI50 (SN12C): 1980 nM
GI50 (MCF7): 1790 nM
GI50 (HOP-62): 1680 nM
GI50 (NCI-H522): 1900 nM
GI50 (MDA-MB-231): 1170 nM
GI50 (PC-3): 1620 nM
GI50 (SF-539): 1640 nM
GI50 (SK-MEL-2): 2230 nM
inhibition (Ovis aries): 9%
GI50 (SK-MEL-28): 1720 nM
GI50 (T47D): 2040 nM
GI50 (SF-295): 1750 nM
GI50 (KM12): 1890 nM
GI50 (SNB-75): 1650 nM
GI50 (OVCAR-4): 2040 nM
GI50 (M14): 1970 nM
GI50 (MOLT-4): 2130 nM
GI50 (MDA-MB-435): 1740 nM
GI50 (SR): 1760 nM
GI50 (RPMI-8226): 1840 nM
GI50 (SK-MEL-5): 1600 nM
GI50 (NCI-H23): 4850 nM
GI50 (OVCAR-8): 1780 nM
GI50 (786-0): 1750 nM
GI50 (UO-31): 1610 nM
GI50 (UACC-62): 1720 nM
GI50 (BT-549): 2960 nM
GI50 (HCT-15): 1700 nM
GI50 (LOX IMVI): 1800 nM
GI50 (A549): 1680 nM
GI50 (CCRF-CEM): 2000 nM
GI50 (ACHN): 1500 nM
GI50 (K562): 1950 nM
GI50 [2]: 2530 nM
GI50 (RXF 393): 1210 nM
GI50 [3]: 1850 nM
GI50 (NCI-H460): 1810 nM
